Structures can show the parent of a compound that is named as a salt.
Legend:
human α1b receptor = target: T1, human α1b receptor (Homo sapiens, UniProt P35368); experiment: Radioligand binding ([3H]prazosin) at cloned human α1b receptor; details: membranes of transfected LM(tk−) cells, [3H]prazosin 0.5 nM; read-out: Binding affinity hα1b
T1 construct: The entire coding region of α1b (1563 bp); expressed in transfected cells
T1 sequence (P35368 1-520): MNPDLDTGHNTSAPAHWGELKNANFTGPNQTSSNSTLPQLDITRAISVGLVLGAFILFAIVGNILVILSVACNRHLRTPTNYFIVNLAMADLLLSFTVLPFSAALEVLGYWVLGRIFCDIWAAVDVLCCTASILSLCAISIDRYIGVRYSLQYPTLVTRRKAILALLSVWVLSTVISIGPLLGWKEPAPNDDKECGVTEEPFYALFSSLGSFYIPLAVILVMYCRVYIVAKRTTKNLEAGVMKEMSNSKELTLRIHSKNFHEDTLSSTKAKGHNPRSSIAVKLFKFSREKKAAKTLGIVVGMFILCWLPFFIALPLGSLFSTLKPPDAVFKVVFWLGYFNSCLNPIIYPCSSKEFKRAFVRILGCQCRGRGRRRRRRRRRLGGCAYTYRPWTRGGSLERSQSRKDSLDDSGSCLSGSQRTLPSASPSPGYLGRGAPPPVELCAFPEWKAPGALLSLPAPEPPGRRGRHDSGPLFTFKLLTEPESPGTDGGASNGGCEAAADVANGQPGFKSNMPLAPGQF
Description: The activity of compounds at the different human receptors was determined in vitro using cultured cell lines that selectively express the receptor of interest. These cell lines were prepared by transfecting the cloned cDNA or cloned genomic DNA or constructs containing both genomic DNA and cDNA encoding the human α-adrenergic receptors as follows:
α1b Human Adrenergic Receptor
The entire coding region of α1b (1563 bp), including 200 base pairs and 5′ untranslated sequence (5′ UT) and 600 bp of 3′ untranslated sequence (3′ UT), was cloned into the EcoRI site of pCEXV-3 eukaryotic expression vector.
The construct involved ligating the full-length containing EcoRI brainstem cDNA fragment from λ ZapII into the expression vector. Stable cell lines were selected as described above. The cell line used herein was designated L-α1B and was deposited with the American Type Culture Collection, 12301 Parklawn Drive, Rockville, Md. 20852, U.S.A. under the provisions of the Budapest Treaty for the International Recognition of the Deposit of Microorganisms for the Purposes of Patent Procedure. The cell line L-α1B was accorded ATCC Accession No. CR 11139, on Sep. 29, 1992.
Radioligand Binding Assays for α1 Receptors
Transfected cells from culture flasks were scraped into 5 ml of 5 mM Tris-HCl, 5 mM EDTA, pH 7.5, and lysed by sonication. The cell lysates were centrifuged at 1000 rpm for 5 min at 4° C., and the supernatant was centrifuged at 30,000×g for 20 min at 4° C. The pellet was suspended in 50 mM Tris-HCl, 1 mM MgCl2, and 0.1% ascorbic acid at pH 7.5. Binding of the α1 antagonist [^3H]prazosin (0.5 nM, specific activity 76.2 Ci/mmol) to membrane preparations of LM(tk−) cells was done in a final volume of 0.25 ml and incubated at 37° C. for 20 min. Nonspecific binding was determined in the presence of 10 μM phentolamine. The reaction was stopped by filtration through GF/B filters using a cell harvester. Inhibition experiments, routinely consisting of 7 concentrations of the tested compounds, were analyzed using a non-linear regression curve-fitting computer program to obtain Ki values.

human α2a receptor = target: T2, human α2a receptor (Homo sapiens, UniProt P08913); experiment: Competition binding ([3H]rauwolscine) at cloned human α2a receptor; details: transfected LM(tk−) cells, [3H]rauwolscine 0.5 nM; read-out: Binding affinity hα2a
T2 construct: expressed in transfected cells
T2 sequence (P08913 1-465): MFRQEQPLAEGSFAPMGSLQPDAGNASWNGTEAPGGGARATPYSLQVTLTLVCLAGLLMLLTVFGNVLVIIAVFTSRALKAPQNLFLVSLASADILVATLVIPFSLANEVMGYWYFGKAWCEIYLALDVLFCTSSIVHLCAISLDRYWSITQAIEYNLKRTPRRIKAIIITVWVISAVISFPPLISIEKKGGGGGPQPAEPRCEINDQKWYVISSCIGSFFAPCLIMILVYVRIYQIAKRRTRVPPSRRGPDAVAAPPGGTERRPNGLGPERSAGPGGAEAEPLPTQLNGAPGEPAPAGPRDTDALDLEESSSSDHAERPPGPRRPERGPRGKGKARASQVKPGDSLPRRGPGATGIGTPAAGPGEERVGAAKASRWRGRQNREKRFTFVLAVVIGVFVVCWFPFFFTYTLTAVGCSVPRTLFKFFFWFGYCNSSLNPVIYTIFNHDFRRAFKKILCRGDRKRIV
Excerpt: (§1) α2 Human Adrenergic Receptors
(§2) To determine the potency of α1 antagonists at the α2 receptors, LM(tk−) cell lines stably transfected with the genes encoding the α2a, α2b, and α2c receptors were used. The cell line expressing the α2a receptor is designated L-α2A, and was deposited on Nov. 6, 1992 under ATCC Accession No. CRL 11180. The cell line expressing the α2b receptor is designated L-NGC-α2B, and was deposited on Oct. 25, 1989 under ATCC Accession No. CRL10275. The cell line expressing the α2c receptor is designated L-α2C, and was deposited on Nov. 6, 1992 under ATCC Accession No. CRL-11181. All the cell lines were deposited with the American Type Culture Collection, 12301 Parklawn Drive, Rockville, Md. 20852, U.S.A. under the provisions of the Budapest Treaty for the International Recognition of the Deposit of Microorganisms for the Purposes of Patent Procedure. Cell lysates were prepared as described above (see Radioligand Binding Assays), and suspended in 25 mM glycylglycine buffer (pH 7.6 at room temperature). Equilibrium competition binding assay were performed using [3H]rauwolscine (0.5 nM), and nonspecific binding was determined by incubation with 10 μM phentolamine. The bound radioligand was separated by filtration through GF/B filters using a cell harvester.

human α2b receptor = target: T3, human α2b receptor (Homo sapiens, UniProt P18089); experiment: Competition binding ([3H]rauwolscine) at cloned human α2b receptor; details: transfected LM(tk−) cells, [3H]rauwolscine 0.5 nM; read-out: Binding affinity hα2b
T3 construct: expressed in transfected cells
T3 sequence (P18089 1-450): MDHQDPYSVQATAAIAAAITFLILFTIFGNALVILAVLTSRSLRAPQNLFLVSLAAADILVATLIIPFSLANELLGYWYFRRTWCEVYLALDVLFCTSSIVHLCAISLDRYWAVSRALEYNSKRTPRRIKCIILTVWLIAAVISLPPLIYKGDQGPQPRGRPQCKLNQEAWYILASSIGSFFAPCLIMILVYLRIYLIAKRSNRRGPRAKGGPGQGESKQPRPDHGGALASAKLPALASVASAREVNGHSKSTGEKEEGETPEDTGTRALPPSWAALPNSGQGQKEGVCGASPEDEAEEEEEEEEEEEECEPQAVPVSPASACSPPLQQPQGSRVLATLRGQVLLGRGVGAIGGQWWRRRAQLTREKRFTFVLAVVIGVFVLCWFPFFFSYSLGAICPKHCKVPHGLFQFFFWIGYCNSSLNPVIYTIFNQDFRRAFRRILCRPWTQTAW
Excerpt: as §1, §2

human α2c receptor = target: T4, human α2c receptor (Homo sapiens, UniProt P18825); experiment: Competition binding ([3H]rauwolscine) at cloned human α2c receptor; details: transfected LM(tk−) cells, [3H]rauwolscine 0.5 nM; read-out: Binding affinity hα2c
T4 construct: expressed in transfected cells
T4 sequence (P18825 1-462): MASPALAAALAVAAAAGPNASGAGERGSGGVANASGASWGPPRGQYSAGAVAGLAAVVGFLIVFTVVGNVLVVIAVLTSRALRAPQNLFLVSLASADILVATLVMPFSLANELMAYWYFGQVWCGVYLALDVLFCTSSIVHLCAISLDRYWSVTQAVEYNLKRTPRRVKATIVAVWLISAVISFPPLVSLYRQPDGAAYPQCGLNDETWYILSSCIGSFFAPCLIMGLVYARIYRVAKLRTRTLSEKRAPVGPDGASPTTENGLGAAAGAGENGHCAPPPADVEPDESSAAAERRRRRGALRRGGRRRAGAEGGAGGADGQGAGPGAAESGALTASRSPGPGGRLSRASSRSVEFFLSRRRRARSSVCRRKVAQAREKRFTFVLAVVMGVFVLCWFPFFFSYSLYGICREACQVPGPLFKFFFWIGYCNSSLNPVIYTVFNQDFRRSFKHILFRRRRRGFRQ
Excerpt: as §1, §2

COCC1=C(C(=O)OC)[C@H](c2ccc(F)c(F)c2)N(C(=O)NCCC[n+]2ccc(-c3ccccn3)cc2)C(=O)N1 (as salt: chloride) [Compound 3, 4-(2-Pyridyl)-1-{3-[5-carboxymethyl-4-methoxymethyl-2-oxo-6(S)-(3,4-difluorphenyl)-1,2,3,6-tetrahydropyrimidin-1-yl]carboxyaminopropyl}pyridinium chloride]
melting point: 60 to 85 °C

O=C1OCC2=C1C(c1ccc(F)c(F)c1)N(C(=O)NCCCN1CCC(c3ccccn3)CC1)C(=O)N2 (single isomer, unassigned; (+)) (as salt: hydrochloride) [Compound 8, (+)-1-3-{[4-(3,4-Difluorophenyl)-2,5-dioxo-1,2,5,7-tetrahydro-4H-furo[3,4-d]-pyrimidine-3-carbonyl]amino}-propyl-4-(2-pyridyl)-piperidine]
melting point: 90 to 95 °C

COCC1=C(CC(=O)O)C(c2ccc(F)c(F)c2)N(C(=O)NCCC[N+]2([O-])CCC(c3ccccn3)CC2)C(=O)N1 (single isomer, unassigned; (+)) [Compound 4, (+)-4-(2-Pyridyl)-1-{3-[5-carboxymethyl-4-methoxymethyl-2-oxo-6-(3,4-difluorphenyl)-1,2,3,6-tetrahydropyrimidin-1-ylcarbonylamino]propyl}piperidine-1-oxide]
Ki (human α1b receptor): 1.35 µM | Ki (human α2a receptor): 22 µM | Ki (human α2b receptor): 17 µM | Ki (human α2c receptor): 8 µM

COC(=O)C1=C(c2ccc(F)c(F)c2)N(C(=O)NCCCN2CCC(c3ccccn3)CC2)C(=O)NC1C(=O)O (single isomer, unassigned; (+)) [Compound 6, (+)-2-Oxo-3-{N-[4-(2-pyridyl)piperidin-1-yl]propyl}carboxamido-4-(3,4-difluorophenyl)-5-methoxycarbonyl-6-carboxy-1,2,3,6-tetrahydropyrimidine]
Ki (human α1b receptor): > 2 µM | Ki (human α2a receptor): > 50 µM | Ki (human α2b receptor): 37.6 µM | Ki (human α2c receptor): > 50 µM
